According to article PMC4833520 (Bioorganic & medicinal chemistry, 2016):

Assays:
[1] = biological target: human dopamine D1 receptor (Homo sapiens, UniProt P21728); assay: PDSP radioligand binding, dopamine D1 receptor; settings: ratio of Ki values
σ1 receptor = σ1 receptor (Cavia porcellus, UniProt Q60492); assay: PDSP radioligand binding, σ1 receptor
Chain of σ1 receptor (Q60492 whole entry): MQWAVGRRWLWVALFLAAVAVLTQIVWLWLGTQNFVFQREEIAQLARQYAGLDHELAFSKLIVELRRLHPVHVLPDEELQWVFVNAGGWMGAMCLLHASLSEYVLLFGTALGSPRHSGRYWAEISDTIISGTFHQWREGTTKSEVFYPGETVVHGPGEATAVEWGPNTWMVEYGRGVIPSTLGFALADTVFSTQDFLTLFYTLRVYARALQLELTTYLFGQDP

Chain of human dopamine D1 receptor (P21728 whole entry): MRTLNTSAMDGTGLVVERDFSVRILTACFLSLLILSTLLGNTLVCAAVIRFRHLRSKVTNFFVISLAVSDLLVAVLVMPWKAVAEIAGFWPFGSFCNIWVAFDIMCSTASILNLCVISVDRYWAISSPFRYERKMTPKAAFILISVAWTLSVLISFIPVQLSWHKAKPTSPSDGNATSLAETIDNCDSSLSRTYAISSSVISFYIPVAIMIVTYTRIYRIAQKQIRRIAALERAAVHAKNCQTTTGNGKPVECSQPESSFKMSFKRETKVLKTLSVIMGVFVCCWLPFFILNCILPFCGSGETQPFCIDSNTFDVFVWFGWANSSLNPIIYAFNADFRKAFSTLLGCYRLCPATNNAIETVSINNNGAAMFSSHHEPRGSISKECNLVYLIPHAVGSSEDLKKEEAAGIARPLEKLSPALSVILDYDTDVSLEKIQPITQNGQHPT

Compound	Selectivity D3/D1 [1]	selectivity for σ1 versus σ2 receptors (σ1 receptor)
COc1cc2c(cc1O)C1Cc3ccc(OCCCO)c(OC)c3CN1CC2 (centres unmarked) [Compound 16, 10-(3-Hydroxypropoxy)-3,9-dimethoxy-5,8,13,13a-tetrahydro-6H-isoquinolino[3,2-a]isoquinolin-2-ol]	16	
CCCCCCOc1ccc2c(c1OC)CN1CCc3cc(OC)c(O)cc3C1C2 (centres unmarked) [Compound 15, 10-(Hexyloxy)-3,9-dimethoxy-5,8,13,13a-tetrahydro-6H-isoquinolino[3,2-a]isoquinolin-2-ol]		approximately 3 fold
